Experimental data as given in patent publication US20110152207A1, “USE OF VITAMIN D GLYCOSIDES AND SULFATES FOR TREATMENT OF DISEASE” (priority 2009, published 2011).

Key:
[1] = tested on: β-glucuronidase activity, duodenum lumen contents; assay: β-glucuronidase cleavage in duodenum lumen contents, free 1,25-D3 by RIA; type: in vitro ADME, rats; conditions: 2100 pg added
Method: (§1) The proximal 25 cm of duodenum/jejunum, the caudal 12 cm of ileum, and the cranial 12 cm of colon were removed. The contents from the lumen of each section were flushed with 3 ml water, collected, and pooled. Three-ml aliquots of intestinal contents were placed into tubes. To the tubes, either 2100 pg (3.53 pmoles) β-gluc-1,25-D3 was added and incubated at 37° C. for 0, 1, 3, or 6 hrs, or 150 pg (0.36 pmoles) of 1,25-D3 was added and incubated for 0 or 6 hrs. […] Acetonitrile (3 ml) was added to each tube after incubation to end all enzymatic activity, after which the 1,25-D3 was extracted. Tritiated 1,25-D3 was added to each tube to assess extraction efficiency. The preparations were cleaned by HPLC, and the samples were analyzed for 1,25-D3 content by RIA (Heartland Assays, Ames, Iowa) (Hollis et al., J. Steroid Biochem. Mol. Biol. 2007 103(3-5):473-6).

[2] = tested on: β-glucuronidase activity, ileum lumen contents; assay: β-glucuronidase cleavage in ileum lumen contents, free 1,25-D3 by RIA; type: in vitro ADME, rats; conditions: 2100 pg added
Method: as §1

[3] = tested on: LNCaP cells; assay: LNCaP cell proliferation (CELLTITER BLUE); type: cell-based, human; conditions: six days, control = 100
Method: LNCaP cells (ATCC # CRL-1740) are malignant prostate cancer cells originally obtained from a lymph node of a person whose prostatic cancer had metastasized to the lymph node. LNCaP cells were grown in tissue culture using RPMI-1640 media with 10% fetal bovine serum. Wells of two 48-well tissue culture plates were seeded with 5000 LNCaP cells/well. […] Half the media was replaced with fresh media with treatments on the third day of the treatment period. By day 6 of treatment, wells of control untreated cells were approximately 60% confluent. The live cell numbers in each well at the end of treatment were assessed using the “CELLTITER BLUE”-brand assay kit (Promega Corp., Madison, Wis.). The assay is based on the ability of living cells to convert a redox dye (resazurin) into a fluorescent end product (resorufin).

[4] = tested on: 4T1 tumor cells; assay: 4T1 mammary tumor growth in BALB/c mice; type: in vivo; conditions: 280 ng/day s.c. daily, eight days
Method: 4T1 tumor cells, originally isolated from a BALB/cfC3H mouse mammary gland, were obtained from American Tissue Culture Collection (Manassas, Va.). The tumor growth and metastatic spread of 4T1 cells in BALB/c mice very closely mimic human breast cancer. This syngeneic tumor graft is an animal model for stage 1V human breast cancer (Pulaski et al. Cancer Res. 1998, 58:1486-1493). The cells were grown in RPMI-1640 media supplemented with 10% fetal bovine serum. When cell growth reached about 70% confluency, the cells were lifted from the flasks with standard removing medium and rinsed with 0.25% trypsin, 0.53-mM EDTA solution (trypsin-EDTA solution). This solution was removed and an additional 1 to 2 ml of trypsin-EDTA solution was added. The flask was allowed to sit at 37.0° C. until the cells detached. Fresh culture medium was added, and the cells were aspirated for enumeration using a hemocytometer. RPMI-1640 and Matrigel (BD Biosciences, Bedford, Mass.) solutions were prepared and maintained at 4° C. to keep the Matrigel liquid. […] Sixteen days after implantation of the cells, tumors approximately 0.5-0.7 cm in diameter (as measured with calipers) formed under the skin of many of the mice. […]

Structure (SMILES): C=C1/C(=C\C=C2/CCC[C@]3(C)[C@@H]([C@H](C)CCCC(C)(C)O[C@@H]4O[C@H](C(=O)O)[C@@H](O)[C@H](O)[C@H]4O)CC[C@@H]23)C[C@@H](O)C[C@@H]1O [β-gluc-1,25-D3, 25-β-glucuronide-1,25-dihydroxyvitamin D3]
- Measured Free 1,25-dihydroxy vitamin D ([1]; 0 hrs incubation): 29 pg
- Measured Free 1,25-dihydroxy vitamin D ([1]; 1 hr incubation): 38 pg
- Measured Free 1,25-dihydroxy vitamin D ([1]; 3 hrs incubation): 63 pg
- Measured Free 1,25-dihydroxy vitamin D ([1]; 6 hrs incubation): 105 pg
- Measured Free 1,25-dihydroxy vitamin D ([2]; 0 hrs incubation): 39 pg
- Measured Free 1,25-dihydroxy vitamin D ([2]; 1 hr incubation): 1323 pg
- Measured Free 1,25-dihydroxy vitamin D ([2]; 3 hrs incubation): 1127 pg
- Measured Free 1,25-dihydroxy vitamin D ([2]; 6 hrs incubation): 1342 pg
- Proliferation index (Mean ± SEM) ([3]; 20 nM): 95.4 ± 2.4
- Proliferation index (Mean ± SEM) ([3]; 100 nM): 73.1 ± 9.5
- tumor weight mean±SEM ([4]; BALB/c mice): 2.01 ± 0.36 g
- effect on the growth of 4T1 tumor cells ([4]; P=0.034): significant anti-proliferative effect
